We go through two compounds from US20220213099A1, “PRODRUG COMPOUNDS” (BRISTOL-MYERS SQUIBB COMPANY, priority 2019, published 2022).

The target of one series is T1, human rIALP (Homo sapiens, UniProt P09923).
T1 sequence (P09923 20-503 limits assumed): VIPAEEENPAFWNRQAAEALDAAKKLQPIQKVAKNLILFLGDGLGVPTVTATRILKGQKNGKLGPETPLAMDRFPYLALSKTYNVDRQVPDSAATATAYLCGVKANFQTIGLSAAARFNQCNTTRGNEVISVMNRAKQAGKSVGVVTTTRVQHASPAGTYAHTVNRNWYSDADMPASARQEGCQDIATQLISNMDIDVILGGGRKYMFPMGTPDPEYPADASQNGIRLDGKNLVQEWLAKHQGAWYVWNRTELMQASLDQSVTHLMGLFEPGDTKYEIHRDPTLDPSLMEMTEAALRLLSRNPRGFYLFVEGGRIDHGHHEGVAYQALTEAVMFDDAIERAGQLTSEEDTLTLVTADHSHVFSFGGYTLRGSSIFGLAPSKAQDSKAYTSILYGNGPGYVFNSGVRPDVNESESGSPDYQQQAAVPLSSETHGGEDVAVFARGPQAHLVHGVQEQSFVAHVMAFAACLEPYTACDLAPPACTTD
The series is described as follows: Recombinant intestinal alkaline phosphatase (rIALP) assay, human. In kind it is in vitro ADME. As to conditions: 100 mM Tris-HCl buffer pH 7.4, 37° C., 120 minutes incubation, read-out: t1/2 in human rIALP. How it is done: (§1) Examples 8 and 9 were evaluated in this assay. To assess the potential for generation of parent drug from the phosphate prodrugs, 100 μL of rIALP was dissolved in 100 mM Tris-HCl buffer (pH 7.4) and it was added to 100 μL of freshly prepared prodrug solution (10 mM) prepared in the same buffer. Incubations were performed in triplicate using 96-well plates (Waters, Milford, Mass.) at 37° C. in a shaking water bath (Julabo, Allentown, Pa.). The prodrug and enzyme solution were pre-warmed at 37° C. before the reaction was initiated by addition of substrate. The incubation was performed for 120 minutes with […] taken at 0, 5, 10, 15, 30, 60, 90, and 120 minutes. The assays were terminated at designated time points by the addition of 200 μL of ice-cold acetonitrile containing internal standard followed by centrifugation at 4000 g for 4 minutes. The supernatant was transferred to a new 96-well plate for analysis by ultra-performance liquid chromatography combined with tandem mass spectrometry (UPLC-MS/MS). The t1/2 value for each prodrug/protein combination was determined from the natural logarithm of percent remaining versus time plots.

The next series relates to rat rIALP. The series is described as follows: Recombinant intestinal alkaline phosphatase (rIALP) assay, rat. The format is in vitro ADME. As to conditions: 100 mM Tris-HCl buffer pH 7.4, 37° C., 120 minutes incubation, read-out: t1/2 in rat rIALP. Here is the method: as §1
The nature of series [1]: Stability evaluation in aqueous buffer. In kind it is physicochemical. As to conditions: aqueous buffer, 37° C., about 50 μg/mL, about 15% v/v acetonitrile. How it is done: The stability study of an individual prodrug was conducted with about 50 μg/mL solutions in aqueous buffers of pH 1 (0.1 M HCl), 4 (acetate buffer) and 6.5 (phosphate buffer) at 37° C. for 24 hours. About 15% v/v acetonitrile was used in these pH buffers as a co-solvent to obtain clear solutions of prodrugs. The sample analysis was carried out using a generic reversed phase liquid chromatographic (LC) method with UV detection. The area percent (AP) loss of the prodrug peak was quantified as a function of time. The appearance of parent peak was identified from the chromatographic retention time. The half-life (t1/2, h) of the prodrug was calculated by using a pseudo-first order equation from a AP loss vs time plot.

Series [2] in a line: Solubility evaluation in aqueous buffer. In kind it is physicochemical. As to conditions: aqueous buffer, 25 °C, thermodynamic from solid, about 24 hours equilibration. Here is the method:
The solid powder of an individual prodrug was equilibrated in aqueous buffers of pH 1, 4 and 6.5 at 25° C. for about 24 hours. After equilibration, the excess solid was separated by filtration using 0.45 μm membrane filter and the filtrate was collected in suitable glass vial. The filtrate was diluted appropriately using respective buffers/diluent and analyzed by a reversed phase LC method with UV detection.

[3] abbreviates: pH 1, pH 1 (0.1 M HCl), read-out: Stability (t1/2, h) at 37° C. pH 1 (converted).
[4] abbreviates: pH 4, pH 4 (acetate buffer), read-out: Stability (t1/2, h) at 37° C. pH 4 (converted).
Setting [5] is: pH 6.5, pH 6.5 (phosphate buffer), read-out: Stability (t1/2, h) at 37° C. pH 6.5 (converted).
Where [6] appears, read: pH 1, simulated gastric fluid, aqueous buffer pH 1, 25° C., read-out: Solubility (mg/mL) at 25° C. pH 1.
Setting [7] is: pH 4, aqueous buffer, aqueous buffer pH 4, 25° C., read-out: Solubility (mg/mL) at 25° C. pH 4.
Where [8] appears, read: pH 6.5, aqueous buffer, aqueous buffer pH 6.5, 25° C., read-out: Solubility (mg/mL) at 25° C. pH 6.5.

SMILES strings stand for the structures. Where a name gives a salt, the structure may show the parent alone. Read-outs that look alike come from different tables or passages of the source.

For `Cc1c(-c2[nH]c3ccc(C4CCN(CC(N)=O)CC4)cc3c2C(C)C)cn2nc[n+](COP(=O)(O)O)c2c1C` (single isomer, unassigned) [Example 8, 6-(5-(1-(2-Amino-2-oxoethyl)piperidin-4-yl)-3-isopropyl-1H-indol-2-yl)-7,8-dimethyl-1-((phosphonooxy)methyl)-[1,2,4]triazolo[1,5-a]pyridin-1-ium trifluoroacetate], the figures for the half-life at 5 mM at human rIALP and in the series on rat rIALP were less than 0.00694 days and less than 0.00347 days, respectively. In addition, the half-life in series [1] (setting [3]), in series [1] (setting [4]) and in series [1] (setting [5]) was greater than 500 h in each case. In addition, the solubility in series [2] (setting [6]) is greater than 0.86 mg/mL; in series [2] (setting [7]) it was 0.03 mg/mL; in series [2] (setting [8]), 0.86 mg/mL.
Take `Cc1c(-c2[nH]c3ccc(C4CC[N+](COP(=O)(O)O)(CC(N)=O)CC4)cc3c2C(C)C)cn2ncnc2c1C` (single isomer, unassigned) [Example 9, 1-(2-Amino-2-oxoethyl)-4-(2-(7,8-dimethyl-[1,2,4]triazolo[1,5-a]pyridin-6-yl)-3-isopropyl-1H-indol-5-yl)-1-((phosphonooxy)methyl)piperidin-1-ium trifluoroacetate]: the half-life at 5 mM at human rIALP and in the series on rat rIALP was less than 0.00347 days in each case. The half-life in series [1] (setting [3]), in series [1] (setting [4]) and in series [1] (setting [5]) was greater than 500 h each time. Also, the solubility is greater than 1.14 mg/mL in series [2] (setting [6]), 0.85 mg/mL in series [2] (setting [7]) and 1.34 mg/mL in series [2] (setting [8]).
